{"source": "patent US4859186A", "about": "“Pulpotomy agent and method of use” (priority 1988, dated 1989)", "key": {"[1]": {"target": "bovine serum albumin (BSA) in collagen-BSA gel wafers (Bos taurus, UniProt P02769)", "sequence (P02769 25-607)": "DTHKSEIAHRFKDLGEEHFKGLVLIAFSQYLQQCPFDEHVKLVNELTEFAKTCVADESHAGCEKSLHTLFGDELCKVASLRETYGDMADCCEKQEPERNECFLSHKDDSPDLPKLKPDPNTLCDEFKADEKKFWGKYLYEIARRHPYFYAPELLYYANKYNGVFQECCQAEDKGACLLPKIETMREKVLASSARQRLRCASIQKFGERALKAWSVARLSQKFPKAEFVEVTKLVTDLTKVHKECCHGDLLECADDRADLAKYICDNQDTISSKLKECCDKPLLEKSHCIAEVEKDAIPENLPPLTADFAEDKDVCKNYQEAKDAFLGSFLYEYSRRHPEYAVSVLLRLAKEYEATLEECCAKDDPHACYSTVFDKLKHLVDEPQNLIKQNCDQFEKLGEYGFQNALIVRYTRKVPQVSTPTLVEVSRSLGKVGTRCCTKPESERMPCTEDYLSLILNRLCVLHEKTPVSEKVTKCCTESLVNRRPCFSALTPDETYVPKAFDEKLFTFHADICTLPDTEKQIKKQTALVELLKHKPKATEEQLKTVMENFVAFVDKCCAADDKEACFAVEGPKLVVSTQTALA", "assay": "Collagen-BSA gel wafer assay: BSA diffusing from gel after fixation", "details": "for % of control retained (diluted 10 fold) / % change relative to fresh glutaraldehyde / % of control retained / % change relative to freshly prepared 4% glutaraldehyde: diluted 10 fold", "description": "(§1) Two assays were used to evaluate the effectiveness of the composition of the present invention as a pulpotomy agent. The first was based on the diffusion of bovine serum albumin (BSA) from collagen-BSA gel wafers following fixation. That methodology was based on the method described in Flitney, F. W., \"The time course of the fixation of albumin by formaldehyde, glutaraldehyde, acrolein and other higher aldehydes,\" 85 J. Royal Microscop. […] 353 (1966)). The collagen-BSA gel was formulated by Flitney to simulate the cytoplasm of the cell. Diffusion of BSA from the gel was intended to provide a reproducible model by which the relative change in the rate of leakage of protein through the cell membrane could be monitored during fixation with different techniques. This procedure was also modified as described in Example III to allow the evaluation of the depth of penetration of the composition of the present invention into adjoining cells of the pulpal tissue. The second assay was the determination of residual lactate dehydrogenase activity (LDH) in bovine pulp following treatment with the composition of the present invention.\nThe effectiveness of the fixative ability of the pulpotomy agent of the present invention was assayed according to the method set out in Flitney, supra. Briefly, that method is as follows. Collagen gels (0.3 g/2.8 ml) were prepared containing a physiological salt solution and bovine serum albumin (1 g BSA/10 ml). The mixture was dissolved in a boiling water bath and measured amounts were pipetted into plastic vials. Collagen-BSA wafers were removed from the vials and incubated in a buffered glutaraldehyde solution and the 4% glutaraldehyde-containing pulpotomy agent prepared as described in Example I, above, for 4 minutes. Wafers treated with distilled water or sodium phosphate buffer for identical time periods were used as respective controls. Following incubation, relative fixation of protein in the gels was ascertained by measuring the amount of BSA which diffuses from the gels into 4 ml of water during a 30 minute period. BSA was quantified by the method described by Bradford, M. M., \"A rapid and sensitive method for quantification of microgram quantities of protein utilizing the principles of protein dye binding,\" 72 Anal. Biochem. 248 (1976).\nThe quantity of BSA which diffused from each gel is reported below as a percentage of control lost or retained."}, "[2]": {"target": "bovine serum albumin (BSA) in collagen-BSA gels (Bos taurus, UniProt P02769)", "sequence (P02769 25-607)": "as above", "assay": "Penetration (depth of fixation) assay: collagen-BSA gels submerged intact in vials", "description": "as §1"}, "[3]": {"system": "lactate dehydrogenase (LDH) in bovine pulp", "assay": "Residual LDH activity in calf pulp after treatment", "format": "biochemical", "description": "as §1\nThe effectiveness of the pulpotomy agent prepared as described in Example I, above, was also evaluated by an assay for residual LDH Activity. In this assay, calf pulp was harvested from freshly extracted molars, minced into pieces of approximately 1 mm^3, divided into aliquots weighing approximately 0.5 g, and stored at -20° C. until used. After thawing each aliquot was wet weighed and incubated in the 4% glutaraldehyde-containing pulpotomy agent prepared as described in Example I for 4 minutes. The treated sample was homogenized for one minute in ten ml of 0.2M Tris, pH 7.3, using a homogenizer. Following centrifugation for ten minutes at 300 rpm on a clinical centrifuge, the supernatant was decanted. One hundred microliters of the supernatant was added to a cuvette containing 2.8 ml Tris HCl, 1.0 ml of […], and 0.1 ml of 30 mM sodium pyruvate and vortexed for 10 seconds. The change in absorbence per minute was recorded on a spectrophotometer at 345 nm at room temperature. The activities were calculated as units/g wet weight/min, and the mean was calculated for five samples in each group. The values are reported as a percentage of controls and statistics were the same as described in Example II, above."}, "[4]": {"details": "stored at room temperature (25° C.) for eight months"}}, "data": [{"molecule": "O=CCCCC=O", "note": "[4% Glutaraldehyde, glutaraldehyde]", "values": [{"measurement": "% of control retained (diluted 10 fold)", "setting": "[1]; Fresh, mean of four samples", "result": 80, "unit": "%"}, {"measurement": "% of control gel retained", "setting": "[1]; Fresh, heat assay, mean of four samples", "result": 80, "unit": "%"}, {"measurement": "% of control retained (undiluted solutions)", "setting": "[1]; Fresh, mean of six samples", "result": 85, "unit": "%"}, {"measurement": "% change relative to fresh glutaraldehyde", "setting": "[1]; Heated at 37° C. for 3 Months", "result": -34, "unit": "%"}, {"measurement": "% of control retained", "setting": "[1]; Heated at 37° C. for 3 Months", "result": 53, "unit": "%"}, {"measurement": "% of control gel retained", "setting": "[1]; Heated: storage at 37° C. for three months", "result": 53, "unit": "%"}, {"measurement": "% change relative to fresh glutaraldehyde", "setting": "[1]; Stored at 25° C. for 3 Months", "result": -21, "unit": "%"}, {"measurement": "% of control retained", "setting": "[1]; Stored at 25° C. for 3 Months", "result": 63, "unit": "%"}, {"measurement": "% change relative to freshly prepared 4% glutaraldehyde", "setting": "[1]; cold nine months", "result": -8, "unit": "%"}, {"measurement": "% of control retained", "setting": "[1]; made up fresh, mean of four samples", "result": 80, "unit": "%"}, {"measurement": "% change relative to freshly prepared 4% glutaraldehyde", "setting": "[1]; room temperature nine months", "result": -11, "unit": "%"}, {"measurement": "% of control retained (undiluted solutions)", "setting": "[1]; [4]", "result": 85, "unit": "%"}, {"measurement": "% of control retained (diluted 10 fold)", "setting": "[1]; stored at room temperature for nine months", "result": 72, "unit": "%"}, {"measurement": "% of control retained (undiluted solutions)", "setting": "[1]; stored cold (5° C.) for eight months", "result": 85, "unit": "%"}, {"measurement": "% of control retained (diluted 10 fold)", "setting": "[1]; stored in the cold for nine months", "result": 72, "unit": "%"}, {"measurement": "% of control retained (BSA in gel)", "setting": "[1]; wafers incubated 4 minutes, BSA diffusing into 4 ml water during 30 minutes, five samples", "result": 78, "unit": "%"}, {"measurement": "secondary diffusion of BSA (depth of penetration)", "setting": "[2]; 2, 4, and 8 percent solutions, FIG. 2", "result": "decreased by approximately the same amount"}, {"measurement": "% of control retained (BSA in gel, penetration)", "setting": "[2]; vials with gels intact submerged 4 minutes, five samples", "result": 27, "unit": "%"}, {"measurement": "% of control retained (LDH activity)", "setting": "[3]; Fresh, mean of 5 samples", "result": 6, "unit": "%"}, {"measurement": "% of control retained (residual LDH activity)", "setting": "[3]; calf pulp incubated 4 minutes, five samples", "result": 3.0, "unit": "%"}, {"measurement": "LDH inhibition versus concentration", "setting": "[3]; different concentrations for any treatment time, FIG. 3", "result": "log-dose response"}, {"measurement": "% of control retained (LDH activity)", "setting": "[3]; [4]", "result": 3, "unit": "%"}, {"measurement": "% of control retained (LDH activity)", "setting": "[3]; stored in the cold (5° C.) for eight months", "result": 4, "unit": "%"}]}]}
